In brackets after ≈: the same amount, converted by molar mass. Blank lines part the entries; values can stand above or below the compound they belong to.
What was measured:
Aspergillus flavus = experiment: Antimicrobial activity against Aspergillus flavus ATCC 15517 after 48 hr by broth micro dilution assay; type: functional; conditions: ATCC 15517, 48 h
Candida albicans = experiment: Antimicrobial activity against Candida albicans ATCC 24433 after 48 hr by broth micro dilution assay; type: functional; conditions: ATCC 24433, 48 h
Escherichia coli = experiment: Antimicrobial activity against Escherichia coli ATCC 25922 after 24 hr by broth micro dilution assay; type: functional; conditions: ATCC 25922, 24 h
Staphylococcus aureus = experiment: Antimicrobial activity against Staphylococcus aureus ATCC 25923 after 24 hr by broth micro dilution assay; type: functional; conditions: ATCC 25923, 24 h
Pseudomonas aeruginosa = experiment: Antimicrobial activity against Pseudomonas aeruginosa ATCC 27853 after 24 hr by broth micro dilution assay; type: functional; conditions: ATCC 27853, 24 h
HEp-2 = experiment: Cytotoxicity against Homo sapiens (human) Hep2 cells after 24 hr by MTT assay; type: functional, cell-based; conditions: HEp-2, 24 h
HeLa = experiment: Cytotoxicity against Homo sapiens (human) HeLa cells after 24 hr by MTT assay; type: functional, cell-based
[1] = Cytotoxicity against Homo sapiens (human) Chang cells after 24 hr by MTT assay; type: functional, cell-based
Rattus norvegicus [2] = experiment: Anti-inflammatory activity in Rattus norvegicus Wistar albino (rat) assessed as carrageenan-induced paw volume at 100 mg/kg, po administered 1 hr prior to carrageenan-challenge measured at 5 hr (reference value: 1.24 +/- 0.0754 mm3); type: functional
Rattus norvegicus [3] = experiment: Anti-inflammatory activity in Rattus norvegicus Wistar albino (rat) assessed as carrageenan-induced paw volume at 100 mg/kg, po administered 1 hr prior to carrageenan-challenge measured at 4 hr (reference value: 1.2825 +/- 0.0862 mm3); type: functional
Rattus norvegicus [4] = experiment: Anti-inflammatory activity in Rattus norvegicus Wistar albino (rat) assessed as carrageenan-induced paw volume at 100 mg/kg, po administered 1 hr prior to carrageenan-challenge measured at 3 hr (reference value: 1.225 +/- 0.0484 mm3); type: functional
Rattus norvegicus [5] = experiment: Anti-inflammatory activity in Rattus norvegicus Wistar albino (rat) assessed as carrageenan-induced paw volume at 100 mg/kg, po administered 1 hr prior to carrageenan-challenge measured at 2 hr (reference value: 1.4175 +/- 0.1931 mm3); type: functional
Rattus norvegicus [6] = experiment: Anti-inflammatory activity in Rattus norvegicus Wistar albino (rat) assessed as inhibition of carrageenan-induced paw edema at 100 mg/kg, po administered 1 hr prior to carrageenan-challenge measured at 1 hr relative to control; type: functional
Rattus norvegicus [7] = experiment: Anti-inflammatory activity in Rattus norvegicus Wistar albino (rat) assessed as carrageenan-induced paw volume at 100 mg/kg, po administered 1 hr prior to carrageenan-challenge measured at 1 hr (reference value: 1.2075 +/- 0.0405 mm3); type: functional
Rattus norvegicus [8] = experiment: Anti-inflammatory activity in Rattus norvegicus Wistar albino (rat) assessed as inhibition of carrageenan-induced paw edema at 100 mg/kg, po administered 1 hr prior to carrageenan-challenge measured at 2 hr relative to control; type: functional

MIC (Aspergillus flavus): 25 µg/mL (≈ 65.6 µM)
MIC (Candida albicans): 12.5 µg/mL (≈ 32.8 µM)
MIC (Escherichia coli): 1.56 µg/mL (≈ 4.09 µM)
MIC (Staphylococcus aureus): 0.78 µg/mL (≈ 2.05 µM)
MIC (Pseudomonas aeruginosa): 3.12 µg/mL (≈ 8.18 µM)
SMILES: O=c1c2cc(Cl)ccc2nc(-c2ccccc2)n1Cc1ccc(Cl)cc1
IC50 (HEp-2): > 50 µg/mL
IC50 (HeLa): > 200 µg/mL
IC50 [1]: > 50 µg/mL
Activity (Rattus norvegicus [2]): 1.1825 mm3
Activity (Rattus norvegicus [3]): 1.2325 mm3
Activity (Rattus norvegicus [4]): 1.195 mm3
Activity (Rattus norvegicus [5]): 1.265 mm3
inhibition in vivo at 100 mg/kg (Rattus norvegicus [6]): 72.9%

SMILES: O=c1c2cc(Cl)ccc2nc(-c2ccccc2)n1-c1cccc(Cl)c1
MIC (Aspergillus flavus): > 100 µg/mL
MIC (Candida albicans): > 100 µg/mL
MIC (Escherichia coli): 6.25 µg/mL (≈ 17 µM)
MIC (Staphylococcus aureus): 3.12 µg/mL (≈ 8.5 µM)
MIC (Pseudomonas aeruginosa): 25 µg/mL (≈ 68.1 µM)
IC50 (HEp-2): < 6.25 µg/mL
IC50 (HeLa): < 25 µg/mL
IC50 [1]: < 6.25 µg/mL
Activity (Rattus norvegicus [2]): 1.125 mm3
Activity (Rattus norvegicus [3]): 1.0575 mm3
Activity (Rattus norvegicus [4]): 1.06 mm3
Activity (Rattus norvegicus [5]): 1.0625 mm3
Activity (Rattus norvegicus [7]): 1.1325 mm3
inhibition in vivo at 100 mg/kg (Rattus norvegicus [8]): 86.8%

SMILES: O=c1c2cc(Cl)ccc2nc(-c2ccccc2)n1-c1ccc(F)c(Cl)c1
MIC (Aspergillus flavus): > 100 µg/mL
MIC (Candida albicans): > 100 µg/mL
MIC (Escherichia coli): > 100 µg/mL
MIC (Staphylococcus aureus): > 100 µg/mL
MIC (Pseudomonas aeruginosa): 100 µg/mL (≈ 260 µM)
IC50 (HEp-2): < 6.25 µg/mL
IC50 (HeLa): < 25 µg/mL
IC50 [1]: < 6.25 µg/mL
Activity (Rattus norvegicus [2]): 1.25 mm3
Activity (Rattus norvegicus [3]): 1.3075 mm3
Activity (Rattus norvegicus [4]): 1.17 mm3
Activity (Rattus norvegicus [5]): 1.3525 mm3
Activity (Rattus norvegicus [7]): 1.1875 mm3
